Data on 11 compounds can be found in US20010011075A1, “5'-SUBSTITUTED-RIBOFURANOSYL BENZIMIDAZOLES AS ANTIVIRAL AGENTS” (priority 1999, published 2001).

pIC50: −log10 of the molar value. Read-outs that look alike come from different tables or passages of the source.

The test system of one data set is HSV-1. The experiment in a line: HSV-1 ELISA assay. It is filed as cell-based, HSV-1 (KOS strain). Conditions: read-out: 50% Inhibitory Concentration, Antiviral Activity (ELISA). The protocol:
(§1) A plaque purified isolate, Po, of the Towne strain of HCMV was used in all experiments and was a gift of Dr. Mark Stinski, University of Iowa. The KOS strain of HSV-1 was used and was provided by Dr. Sandra K. Weller, University of Connecticut. Stock preparations of HCMV and HSV-1 were prepared and titered as known to those of skill and the art and described in Turk, S. R. et al. (1987) Antimicrob. Agents Chemother. Vol. 31:544-550 and Shipman, C., Jr., et al. (1990) J. Virol. Methods Vol. 28:101-106, each incorporated herein by reference.
(§2) HCMV plaque reduction experiments were performed with monolayer cultures of HFF cells by a procedure similar to that referenced above for titration of the viruses and described in Devivar, R. V. et al. (1994) J. Med. Chem. Vol. 37:2942-2949. Activity of compounds against HSV-1 was evaluated using an ELISA assay.
ELISA techniques according to standard procedures were also used to determine activity against HSV-1. Drug effects were calculated as a percentage of the reduction in virus titers in the presence of each drug concentration compared to the titer obtained in the absence of drug. Ganciclovir was used as a positive control in all experiments.
(§3) Dose-response relationships can be used to compare drug effects. These are constructed by linearly regressing the percent inhibition of parameters derived in the preceding sections against log drug concentrations. The 50 inhibitory (I50) concentrations were calculated from the regression lines using the methods described by Goldstein. See Goldstein, A., Biostatistics: An Introductory Text, MacMillan, New York, pp. 156-161 (1964), incorporated herein by reference.
(§4) (2) A plaque assay was used to quantitate anti HCMV activity, an ELISA assay was used to quantitate activity against HSV-1. DHPG (ganciclovir) was used as a positive control for the HCMV assay.
For orientation: ELISA stands for enzyme-linked immunosorbent assay.

The subject of data set [1] is HCMV. Kind of data set: HCMV plaque (focus) reduction assay in HFF cells. Conditions: for pIC50: HCMV plaque assay, HFF cells, averages from two or more experiments, read-out: 50% Inhibitory Concentration, Antiviral Activity (plaque); for anti-HCMV activity (in words): Table 1. The class given is cell-based, HCMV (Towne strain). The protocol:
as §1, §2
The effect of compounds of the replication of HCMV was measured using a plaque (focus) reduction assay. For the former, HFF cells in 24-well culture dishes were infected with approximately 50 p.f.u. of HCMV per well using the procedures detailed above. Compounds dissolved in growth medium were added in four to six selected concentrations to duplicate wells following virus adsorption. Following incubation at 37° C. for 7 to 10 days, cell sheets were fixed, stained and microscopic plaques were enumerated as described above. Drug effects were calculated as a percentage of reduction in number of plaques in the presence of each drug concentration compared to the number observed in the absence of drug. DHPG (ganciclovir) was used as a positive control in all experiments.
as §3, §4

Data set [2] can be described thus: Inhibition of KB cell growth (crystal violet staining). The class given is cell-based, human. Conditions: human, KB cells (human epidermal oral carcinoma line); inhibition of KB cell growth; read-out: 50% Inhibitory Concentration, Cytotoxicity (KB). The protocol: (§5) KB cells (available from the American Type Culture Collection (ATCC) 12301 Parklawn Drive, […], Md. 20852 (ATCC CCL 17)), an established human cell line derived from an epidermal oral carcinoma, were grown in minimal essential medium (MEM) (Sigma) with Hanks salts (MEM(H)) supplemented with 5% fetal calf serum. Human foreskin fibroblasts (HFF cells) (provided by the University of Michigan Hospital) and African green monkey kidney cells (BSC-1) (ATTC CCL 26) cells were grown in MEM with Earl salts (MEM(E)) supplemented with 10% fetal bovine serum. Cells were passaged according to conventional procedures and as described in Shipman, C., Jr. et al. (1976) Antimicrob. Agents Chemother. Vol. 9:120 and incorporated herein by reference. Briefly, cells were passaged at 1:2 to 1:10 dilutions according to conventional procedures by using 0.05% trypsin plus 0.02% EDTA in a HEPES buffered salt solution. HFF cells were passaged only at 1:2 dilutions.
(§6) Two different methods were used to evaluate cytotoxicity of the compounds. First, cytotoxicity produced in stationary HFF cells was determined by microscopical examination of cells not affected by the virus used in the plaque assay. Second the effect of compounds on KB cells during two population doubling times was determined by crystal violet staining and spectrophotometric quantitation of dye eluted from stained cells. This method has been utilized for the analysis of ganciclovir and zidovudine (See Prichard, M. N. et al. Antiviral Res. (1991) Vol. 35:1060-1065).
(§7) (3) Visual cytotoxicity was scored on HFF cells at the time of HCMV plaque enumeration. Inhibition of KB cell growth was determined as described in the experimental. 3L was used as a positive control for the KB cytotoxicity assay.

Data set [3] can be described thus: Visual cytotoxicity in stationary HFF cells at time of plaque enumeration. The class given is cell-based, human. Conditions: human, stationary human foreskin fibroblasts (HFF cells); visual cytotoxicity on HFF cells at time of HCMV plaque enumeration; read-out: 50% Inhibitory Concentration, Cytotoxicity (HFF). The procedure:
as §5, §6, §7

Another data set concerns L1210 cells. The experiment in a line: Antiproliferative activity: growth of L1210 cells. The class given is cell-based, mouse. Conditions: for pIC50: concentration required to decrease final growth rate of L1210 cells to half of control rate, read-out: 50% Inhibitory Concentration, Antiproliferative Activity. The protocol: Antiproliferative activity was evaluated by measuring the effect of the compounds on the growth of L1210 cells, a mouse leukemia cell line which is generally available and can be obtained from Cancer Chemotherapy Center, Japanese Foundation for Cancer Research. Antiproliferative activity was measured using conventional procedures and as described in Wotring, L. L. and Townsend, L. B., (1979) Cancer Res. Vol. 39:3018-3023 and Cory, A. H. et al. (1991) Cancer Comm. Vol. 3:207-212, each incorporated herein by reference.
(8) The concentration required to decrease the final growth rate of L1210 cells to half of the control rate. All values are averages from two or more experiments.

Data set [4] has as its system HCMV. Conditions: background statement; times more active than TCRB; cited from earlier work.
The subject of a further data set is KB cells. Kind of data set: Inhibition of KB cell growth (crystal violet staining). The class given is cell-based, human. Conditions: for pIC50: inhibition of KB cell growth, read-out: 50% Inhibitory Concentration, Cytotoxicity (KB). The protocol: as §5, §6, §7
The subject of the next data set is HFF cells. Kind of data set: Visual cytotoxicity in stationary HFF cells at time of plaque enumeration. It is filed as cell-based, human. Conditions: visual cytotoxicity on HFF cells at time of HCMV plaque enumeration; read-out: 50% Inhibitory Concentration, Cytotoxicity (HFF). The protocol: as §5, §6, §7
Setting [5] is: Human alphaherpesvirus 1, averages from two or more experiments.
Setting [6] is: averages from two or more experiments.

Broadly, the melting point is the temperature of the solid-liquid transition. Consider `CCCCOC[C@H]1O[C@@H](n2c(Cl)nc3cc(Cl)c(Cl)cc32)[C@H](OC(C)=O)[C@@H]1OC(C)=O` [Compound 7c, 2,5,6-trichloro-1-(2′,3′-di-O-acetyl-5′-O-butyl-β-D-ribofuranosyl)benzimidazole], for which the melting point was in the range of 143 to 144 °C. Further, the pIC50 with HSV-1 (setting [5]) is under 4.00. Besides, the pIC50 in the data set with HCMV [1] (Human betaherpesvirus 5, HFF) is 4.68. The IC50 at 2 population doubling times in data set [2] is over 100 µM. In addition, the pIC50 in [3] is 4.18.

In the case of `CCOC[C@H]1O[C@@H](n2c(Cl)nc3cc(Cl)c(Cl)cc32)[C@H](OC(C)=O)[C@@H]1OC(C)=O` [Compound 7b, 2,5,6-trichloro-1-(2′,3′-di-O-acetyl-5′-O-ethyl-β-D-ribofuranosyl)benzimidazole], the melting point is 125 to 126 °C. Also, the pIC50 with HSV-1 (setting [5]) is under 4.00. Further, in the data set on HCMV [1] (Human betaherpesvirus 5, HFF), the pIC50 was 5.37. In [2], the IC50 at 2 population doubling times stood at 60 µM. Moreover, in [3], the pIC50 is 4.48.

`CCOC[C@H]1O[C@@H](n2c(Cl)nc3cc(Cl)c(Cl)cc32)[C@H](O)[C@@H]1O` [Compound 8b, 2,5,6-trichloro-1-(5′-O-ethyl-β-D-ribofuranosyl)benzimidazole] came in with a melting point of 88 to 90 °C. Moreover, in the data set with HSV-1 (setting [5]), the pIC50 is under 4.00. The pIC50 in the data set with HCMV [1] (Human betaherpesvirus 5, HFF) was 5.34. Besides, the IC50 at 2 population doubling times in data set [2] was 80 µM. The pIC50 in the data set on L1210 cells (Mus musculus) was 4.23. The pIC50 in data set [3] is 4.59.

On to `C[C@H]1O[C@@H](n2c(Cl)nc3cc(Cl)c(Cl)cc32)[C@H](O)[C@@H]1O` [Compound 2, 2,5,6-trichloro-1-(5′-deoxy-β-D-ribofuranosyl)benzimidazole, reference compound], for which, in the data set on HCMV [4], the “activity relative to TCRB” value is recorded as “about 10 times”. The pIC50 in the data set on HSV-1 (setting [6]) is under 4.00; in the data set with HCMV [1], 6.44; in the data set on KB cells, 3.82; with HFF cells it was 4.11.

Regarding `CCCCOC[C@H]1O[C@@H](n2c(Cl)nc3cc(Cl)c(Cl)cc32)[C@H](O)[C@@H]1O` [Compound 8c, 2,5,6-trichloro-1-(5′-O-butyl-β-D-ribofuranosyl)benzimidazole], the melting point lay within 70 to 72 °C. For the same compound, the pIC50 in the data set with HSV-1 (setting [5]) is under 4.00. Further, in the data set on HCMV [1] (Human betaherpesvirus 5, HFF), the pIC50 was 4.85. Further, in data set [2], the IC50 at 2 population doubling times was 60 µM. In the data set on L1210 cells (Mus musculus), the pIC50 was under 4.00. Also, the pIC50 in [3] is 4.49.

Compound `COC[C@H]1O[C@@H](n2c(Cl)nc3cc(Cl)c(Cl)cc32)[C@H](OC(C)=O)[C@@H]1OC(C)=O` [Compound 7a, 2,5,6-trichloro-1-(2′,3′-di-O-acetyl-5′-O-methyl-β-D-ribofuranosyl)benzimidazole] gave a melting point of 150 to 151 °C. Besides, the pIC50 in the data set on HSV-1 (setting [5]) is under 4.00. Further, in the data set with HCMV [1] (Human betaherpesvirus 5, HFF), the pIC50 was 5.55. For the same compound, the IC50 at 2 population doubling times in data set [2] stood at 80 µM. Further, the pIC50 in data set [3] is 4.59.

`O[C@@H]1[C@H](O)[C@@H](CF)O[C@H]1n1c(Cl)nc2cc(Cl)c(Cl)cc21` [Compound 13a, 2,5,6-trichloro-1-(5′-deoxy-5′-fluoro-β-D-ribofuranosyl)benzimidazole]: the pIC50 in the data set with HSV-1 (setting [6]) is under 4.00; in the data set on HCMV [1], 6.30; with KB cells, under 4.00; with L1210 cells it was under 4.00; with HFF cells, 4.49. Besides, the “cytotoxicity in growing KB cells (in words)” value with KB cells is “little or no cytoxicity”. Besides, the “antiproliferative effect in L1210 cells (in words)” value with L1210 cells (statement in text on Table 2) is “no antiproliferative effect”.

`[N-]=[N+]=NC[C@H]1O[C@@H](n2c(Cl)nc3cc(Cl)c(Cl)cc32)[C@H](O)[C@@H]1O` [Compound 17a, 2,5,6-trichloro-1-(5′-deoxy-5′-azido-β-D-ribofuranosyl)benzimidazole]: the pIC50 with HSV-1 (setting [6]) was under 4.00; in the data set with HCMV [1], 5.82; in the data set on KB cells, 4.15; in the data set on L1210 cells, 4.10; in the data set on HFF cells it was 4.49.

`CSC[C@H]1O[C@@H](n2c(Cl)nc3cc(Cl)c(Cl)cc32)[C@H](O)[C@@H]1O` [Compound 17b, 2,5,6-trichloro-1-(5′-deoxy-5′-methylthio-β-D-ribofuranosyl)benzimidazole]: the pIC50 is under 4.00 in the data set on HSV-1 (setting [6]); 5.35 in the data set with HCMV [1]; under 4.00 in the data set with KB cells; under 4.00 with L1210 cells; 4.49 in the data set with HFF cells. For the same compound, the “anti-HCMV activity (in words)” value in the data set with HCMV [1] is on record as “equally active as the 5′-O-ethyl derivative (8b)”.

`CCCCCCOC[C@H]1O[C@@H](n2c(Cl)nc3cc(Cl)c(Cl)cc32)[C@H](OC(C)=O)[C@@H]1OC(C)=O` [Compound 7d, 2,5,6-trichloro-1-(2′,3′-di-O-acetyl-5′-O-hexyl-β-D-ribofuranosyl)benzimidazole] returned a melting point of 98 to 100 °C. Moreover, the pIC50 in the data set with HSV-1 (setting [5]) is under 4.00. Also, the pIC50 with HCMV [1] (Human betaherpesvirus 5, HFF) is 5.10. Besides, the “anti-HCMV activity (in words)” value with HCMV [1] is reported as “decreased activity over the butyl compound (7c)”. In addition, the IC50 at 2 population doubling times in data set [2] was found to be 60 µM. The pIC50 in [3] is 4.49.

As to `COC[C@H]1O[C@@H](n2c(Cl)nc3cc(Cl)c(Cl)cc32)[C@H](O)[C@@H]1O` [Compound 8a, 2,5,6-trichloro-1-(5′-O-methyl-β-D-ribofuranosyl)benzimidazole], the melting point was in the range of 104 to 105 °C. In addition, the pIC50 in the data set with HSV-1 (setting [5]) was under 4.00. Moreover, in the data set on HCMV [1] (Human betaherpesvirus 5, HFF), the pIC50 is 5.52. The IC50 at 2 population doubling times in data set [2] worked out at 90 µM. Further, the pIC50 in the data set with L1210 cells (Mus musculus) was 4.22. For the same compound, the pIC50 in data set [3] is 4.59.
